Data on six molecules can be found in PubChem BioAssay (NCI).

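Five concentrations, 48 hours, 96-well plates. The concentration for full growth arrest is given as TGI.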

Some test systems named below: HCT-116 colon; KM12 colon; MALME-3M melanoma; MCF7 breast; MOLT-4 leukemia; NCI-H522 lung; OVCAR-5 ovarian; SF-295 CNS; SNB-19 CNS; SR leukemia; T-47D breast.
Holding throughout (assay): NCI tumour cell line growth inhibition, 48 h

For the molecule `CCC[C@H](C)[C@H]1NC(=O)[C@@H](NC(=O)[C@@H](CC(C)C)N(C)C(=O)C2CCCN2C(=O)[C@H](C)O)[C@@H](C)OC(=O)[C@H](CC(C)C)N(C)C(=O)[C@@H]2CCCN2C(=O)[C@H](CC(C)C)NC(=O)[C@@H](C)C(=O)[C@H](C(C)C)OC(=O)C[C@@H]1O` (stereo partly specified), the TGI with HCT-116 colon was 0.00356 µM; with KM12 colon, 1.27 µM; in the assay with MALME-3M melanoma, less than 0.0025 µM; with MCF7 breast, 0.25 µM; in the assay with MOLT-4 leukemia, 1.58 µM; in the assay with NCI-H522 lung, 0.00609 µM. In addition, the TGI with OVCAR-5 ovarian was found to be 0.0346 µM; in the assay with SF-295 CNS, 0.0536 µM; in the assay on SNB-19 CNS it was 0.06 µM; in the assay with SR leukemia it was 0.0422 µM; in the assay on T-47D breast it was 0.25 µM.

On to `CCN(CC)CCCn1c(=O)c2cccnc2n2c3c(=O)n(C)c(=O)n(C)c3nc12`, for which the TGI in the assay with HCT-116 colon, in the assay on KM12 colon, in the assay on MALME-3M melanoma, in the assay on MCF7 breast, with MOLT-4 leukemia and with NCI-H522 lung was more than 100 µM in each case. Further, the TGI in the assay with OVCAR-5 ovarian, in the assay with SF-295 CNS, in the assay with SNB-19 CNS, in the assay on SR leukemia and in the assay with T-47D breast was more than 100 µM each time.

For the molecule `N#Cc1c2c(c(Nc3ccc(F)cc3)n3c1nc1ccccc13)CCC2`, the TGI in the assay with HCT-116 colon is 3.45 µM; in the assay on KM12 colon it was 23.7 µM; with MALME-3M melanoma it was 19.9 µM; with MCF7 breast, 16 µM; with MOLT-4 leukemia it was more than 100 µM; in the assay on NCI-H522 lung, 4.58 µM. In addition, the TGI is 13.9 µM in the assay on OVCAR-5 ovarian; 18.7 µM in the assay with SF-295 CNS; 22.1 µM in the assay with SNB-19 CNS; more than 100 µM in the assay on SR leukemia; 24 µM in the assay on T-47D breast.

Regarding `CN1C(=O)CN(NC(=O)C2=C(O)c3ccc(Br)cc3S(=O)(=O)N2)C1=S`, the TGI in the assay on HCT-116 colon, with KM12 colon, in the assay on MALME-3M melanoma, with MCF7 breast, with MOLT-4 leukemia and in the assay on NCI-H522 lung was more than 100 µM in each case. Further, the TGI in the assay on OVCAR-5 ovarian, with SF-295 CNS, in the assay on SNB-19 CNS, in the assay with SR leukemia and with T-47D breast was more than 100 µM in each case.

`COC(=O)C1CC(C=[N+](C)C)=C(SC)N1` (stereo unspecified): the TGI with HCT-116 colon, with KM12 colon, in the assay on MALME-3M melanoma, in the assay with MCF7 breast, with MOLT-4 leukemia and with NCI-H522 lung was more than 100 µM in each case. The TGI with OVCAR-5 ovarian, with SF-295 CNS, with SNB-19 CNS, in the assay on SR leukemia and with T-47D breast was more than 100 µM each time.

`CC(=O)OCC1OC(n2c(=S)[nH]c(-c3ccccc3)c(C#N)c2=O)C(OC(C)=O)C(OC(C)=O)C1OC(C)=O` (stereo unspecified): the TGI with HCT-116 colon, in the assay on KM12 colon, in the assay on MALME-3M melanoma, in the assay with MCF7 breast, in the assay with MOLT-4 leukemia and in the assay with NCI-H522 lung was more than 100 µM throughout. Besides, the TGI in the assay on OVCAR-5 ovarian, in the assay on SF-295 CNS, in the assay on SNB-19 CNS, in the assay on SR leukemia and in the assay with T-47D breast was more than 100 µM each time.
